# Measurements taken from patent US20250388589A1, “TRICYCLIC HETEROCYCLIC DERIVATIVES, COMPOSITIONS AND USES THEREOF” (Danatlas Pharmaceuticals Co., Ltd., priority 2022, published 2025).
# Tests used:
# Kuramochi cell line = assay: Cell Viability Assay (Cell Titer-Glo, 7 days); format: cell-based; settings: 168 h, Kuramochi cells, 7 days incubation, read-out: PARG Cell viability (IC50)
# Summary of the method: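 Kuramochi cells in RPMI with 10% FBS, seeded at 400 cells/well, were treated with a 9-point 3-fold dilution series in duplicate for 7 days at 37 °C, 5% CO2. Viability by CellTiter-Glo luminescence, normalised to DMSO and medium-only controls; IC50 from 4-parameter Hill fit.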
# [1] = biological target: hPARG (C-terminal His6-tag) (Homo sapiens (Human), UniProt Q86W56); assay: PARG Enzymatic Activity Assay (HTRF); format: biochemical; settings: hPARG 65 pM final, biotinylated-NAD ribosylated PARP1 8 nM final
# Sequence of hPARG (C-terminal His6-tag) (Q86W56 whole entry): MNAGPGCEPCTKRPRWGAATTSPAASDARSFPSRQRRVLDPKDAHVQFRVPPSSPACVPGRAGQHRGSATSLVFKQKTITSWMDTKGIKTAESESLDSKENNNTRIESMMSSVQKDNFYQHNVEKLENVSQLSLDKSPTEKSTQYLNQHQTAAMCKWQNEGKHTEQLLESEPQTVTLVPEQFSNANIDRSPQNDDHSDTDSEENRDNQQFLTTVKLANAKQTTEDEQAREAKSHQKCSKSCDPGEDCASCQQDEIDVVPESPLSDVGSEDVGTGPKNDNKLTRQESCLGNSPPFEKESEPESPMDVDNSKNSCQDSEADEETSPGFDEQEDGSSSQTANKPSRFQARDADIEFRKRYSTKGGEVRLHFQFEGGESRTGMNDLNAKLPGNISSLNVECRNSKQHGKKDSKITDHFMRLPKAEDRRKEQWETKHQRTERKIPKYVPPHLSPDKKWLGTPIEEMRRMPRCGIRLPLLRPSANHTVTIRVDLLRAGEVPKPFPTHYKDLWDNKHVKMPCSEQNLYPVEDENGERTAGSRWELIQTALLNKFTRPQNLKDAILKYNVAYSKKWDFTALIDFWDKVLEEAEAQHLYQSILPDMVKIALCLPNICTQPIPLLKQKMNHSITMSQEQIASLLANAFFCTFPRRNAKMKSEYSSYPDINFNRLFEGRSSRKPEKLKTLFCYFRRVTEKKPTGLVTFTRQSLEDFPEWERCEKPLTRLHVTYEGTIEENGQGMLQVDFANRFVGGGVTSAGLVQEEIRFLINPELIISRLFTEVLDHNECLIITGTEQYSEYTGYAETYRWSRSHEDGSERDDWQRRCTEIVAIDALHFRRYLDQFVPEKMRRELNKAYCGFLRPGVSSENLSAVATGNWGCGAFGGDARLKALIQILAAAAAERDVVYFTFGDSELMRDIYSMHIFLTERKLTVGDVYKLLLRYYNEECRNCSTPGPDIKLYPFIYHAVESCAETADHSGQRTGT
# Summary of the method: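 E. coli-expressed enzyme (65 pM final) preincubated 60 min RT with compounds (10-point 4-fold dilution, duplicate) in 50 mM Tris pH 7.4, 3 mM EDTA, 1 mM DTT, 50 mM KCl, 0.01% Tween 20. Biotinylated-NAD ribosylated PARP1 substrate (8 nM final) reacted 10 min RT; Eu-streptavidin/anti-6HIS-XL665 HTRF read 665/620 nm after 60 min. IC50 from 4-parameter Hill fit.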
SMILES,IC50 (Kuramochi cell line),IC50 [1]
"C[C@H](O)C(=O)N1CCC(c2ncnc3c2c2ccc(S(=O)(=O)NC4(C#N)CC4)cc2n3-c2nnc(C(F)F)s2)CC1 [Example 106, (S)-N-(1-Cyanocyclopropyl)-9-(5-(difluoromethyl)-1,3,4-thiadiazol-2-yl)-4-(1-(2-hydroxypropanoyl)piperidin-4-yl)-9H-pyrimido[4,5-b]indole-7-sulfonamide]",< 0.1 µM,< 0.1 µM
"C[C@@H](O)C(=O)N1CCC(c2ncnc3c2c2ccc(S(=O)(=O)NC4(C#N)CC4)cc2n3-c2nnc(C(F)F)s2)CC1 [Example 107, (R)-N-(1-Cyanocyclopropyl)-9-(5-(difluoromethyl)-1,3,4-thiadiazol-2-yl)-4-(1-(2-hydroxypropanoyl)piperidin-4-yl)-9H-pyrimido[4,5-b]indole-7-sulfonamide]",< 0.1 µM,< 0.1 µM
"CO[C@@H](C)C(=O)N1CCC(c2ncnc3c2c2ccc(S(=O)(=O)NC4(C#N)CC4)cc2n3-c2nnc(C(F)F)s2)CC1 [Example 108, (S)-N-(1-Cyanocyclopropyl)-9-(5-(difluoromethyl)-1,3,4-thiadiazol-2-yl)-4-(1-(2-methoxypropanoyl)piperidin-4-yl)-9H-pyrimido[4,5-b]indole-7-sulfonamide]",< 0.1 µM,< 0.1 µM
"CO[C@H](C)C(=O)N1CCC(c2ncnc3c2c2ccc(S(=O)(=O)NC4(C#N)CC4)cc2n3-c2nnc(C(F)F)s2)CC1 [Example 109, (R)-N-(1-cyanocyclopropyl)-9-(5-(difluoromethyl)-1,3,4-thiadiazol-2-yl)-4-(1-(2-methoxypropanoyl)piperidin-4-yl)-9H-pyrimido[4,5-b]indole-7-sulfonamide]",< 0.1 µM,< 0.1 µM
"N#CC1(NS(=O)(=O)c2ccc3c4c(C5CCN(C(=O)[C@H]6CCCO6)CC5)ncnc4n(-c4nnc(C(F)F)s4)c3c2)CC1 [Example 110, (R)-N-(1-cyanocyclopropyl)-9-(5-(difluoromethyl)-1,3,4-thiadiazol-2-yl)-4-(1-(tetrahydrofuran-2-carbonyl)piperidin-4-yl)-9H-pyrimido[4,5-b]indole-7-sulfonamide]",< 0.1 µM,< 0.1 µM
"N#CC1(NS(=O)(=O)c2ccc3c4c(C5CCN(C(=O)[C@@H]6CCCO6)CC5)ncnc4n(-c4nnc(C(F)F)s4)c3c2)CC1 [Example 111, (S)-N-(1-cyanocyclopropyl)-9-(5-(difluoromethyl)-1,3,4-thiadiazol-2-yl)-4-(1-(tetrahydrofuran-2-carbonyl)piperidin-4-yl)-9H-pyrimido[4,5-b]indole-7-sulfonamide]",< 0.1 µM,< 0.1 µM
"CN1CCC[C@H]1C(=O)N1CCC(c2ncnc3c2c2ccc(S(=O)(=O)NC4(C#N)CC4)cc2n3-c2nnc(C(F)F)s2)CC1 [Example 112, N-(1-cyanocyclopropyl)-9-(5-(difluoromethyl)-1,3,4-thiadiazol-2-yl)-4-(1-(methyl-L-prolyl)piperidin-4-yl)-9H-pyrimido[4,5-b]indole-7-sulfonamide]",0.1 to 1 µM,< 0.1 µM
"N#CC1(NS(=O)(=O)c2ccc3c4c(C5CCN(C(=O)C6COC6)CC5)ncnc4n(-c4nnc(C(F)F)s4)c3c2)CC1 [Example 113, N-(1-cyanocyclopropyl)-9-(5-(difluoromethyl)-1,3,4-thiadiazol-2-yl)-4-(1-(oxetane-3-carbonyl)piperidin-4-yl)-9H-pyrimido[4,5-b]indole-7-sulfonamide]",< 0.1 µM,< 0.1 µM
"N#CC1(NS(=O)(=O)c2ccc3c4c(C5CCN(C(=O)C6(O)CC6)CC5)ncnc4n(-c4nnc(C(F)F)s4)c3c2)CC1 [Example 114, N-(1-cyanocyclopropyl)-9-(5-(difluoromethyl)-1,3,4-thiadiazol-2-yl)-4-(1-(1-hydroxycyclopropane-1-carbonyl)piperidin-4-yl)-9H-pyrimido[4,5-b]indole-7-sulfonamide]",0.1 to 1 µM,< 0.1 µM
"N#CC1(NS(=O)(=O)c2ccc3c4c(C5CCN(C(=O)[C@H]6CCOC6)CC5)ncnc4n(-c4nnc(C(F)F)s4)c3c2)CC1 [Example 115, (S)-N-(1-cyanocyclopropyl)-9-(5-(difluoromethyl)-1,3,4-thiadiazol-2-yl)-4-(1-(tetrahydrofuran-3-carbonyl)piperidin-4-yl)-9H-pyrimido[4,5-b]indole-7-sulfonamide]",< 0.1 µM,< 0.1 µM
"N#CC1(NS(=O)(=O)c2ccc3c4c(C5CCN(C(=O)[C@@H]6CCOC6)CC5)ncnc4n(-c4nnc(C(F)F)s4)c3c2)CC1 [Example 116, (R)-N-(1-cyanocyclopropyl)-9-(5-(difluoromethyl)-1,3,4-thiadiazol-2-yl)-4-(1-(tetrahydrofuran-3-carbonyl)piperidin-4-yl)-9H-pyrimido[4,5-b]indole-7-sulfonamide]",< 0.1 µM,< 0.1 µM
"COCC(=O)N1CCC(c2ncnc3c2c2ccc(S(=O)(=O)NC4(C#N)CC4)cc2n3-c2nnc(C(F)F)s2)CC1 [Example 117, N-(1-cyanocyclopropyl)-9-(5-(difluoromethyl)-1,3,4-thiadiazol-2-yl)-4-(1-(2-methoxyacetyl)piperidin-4-yl)-9H-pyrimido[4,5-b]indole-7-sulfonamide]",< 0.1 µM,< 0.1 µM
"CC(C)(O)C(=O)N1CCC(c2ncnc3c2c2ccc(S(=O)(=O)NC4(C#N)CC4)cc2n3-c2nnc(C(F)F)s2)CC1 [Example 118, N-(1-cyanocyclopropyl)-9-(5-(difluoromethyl)-1,3,4-thiadiazol-2-yl)-4-(1-(2-hydroxy-2-methylpropanoyl)piperidin-4-yl)-9H-pyrimido[4,5-b]indole-7-sulfonamide]",< 0.1 µM,< 0.1 µM
"COC(C)(C)C(=O)N1CCC(c2ncnc3c2c2ccc(S(=O)(=O)NC4(C#N)CC4)cc2n3-c2nnc(C(F)F)s2)CC1 [Example 119, N-(1-cyanocyclopropyl)-9-(5-(difluoromethyl)-1,3,4-thiadiazol-2-yl)-4-(1-(2-methoxy-2-methylpropanoyl)piperidin-4-yl)-9H-pyrimido[4,5-b]indole-7-sulfonamide]",< 0.1 µM,< 0.1 µM
"CCC(=O)N1CCC(c2ncnc3c2c2ccc(S(=O)(=O)NC4(C#N)CC4)cc2n3-c2nnc(C(F)F)s2)CC1 [Example 120, N-(1-cyanocyclopropyl)-9-(5-(difluoromethyl)-1,3,4-thiadiazol-2-yl)-4-(1-propionylpiperidin-4-yl)-9H-pyrimido[4,5-b]indole-7-sulfonamide]",< 0.1 µM,< 0.1 µM
"CS(=O)(=O)N1CCC(c2ncnc3c2c2ccc(S(=O)(=O)NC4(C#N)CC4)cc2n3-c2nnc(C(F)F)s2)CC1 [Example 121, N-(1-Cyanocyclopropyl)-9-(5-(difluoromethyl)-1,3,4-thiadiazol-2-yl)-4-(1-(methylsulfonyl)piperidin-4-yl)-9H-pyrimido[4,5-b]indole-7-sulfonamide]",< 0.1 µM,< 0.1 µM
"CCS(=O)(=O)N1CCC(c2ncnc3c2c2ccc(S(=O)(=O)NC4(C#N)CC4)cc2n3-c2nnc(C(F)F)s2)CC1 [Example 122, N-(1-Cyanocyclopropyl)-9-(5-(difluoromethyl)-1,3,4-thiadiazol-2-yl)-4-(1-(ethylsulfonyl)piperidin-4-yl)-9H-pyrimido[4,5-b]indole-7-sulfonamide]",< 0.1 µM,< 0.1 µM
"CC(C)S(=O)(=O)N1CCC(c2ncnc3c2c2ccc(S(=O)(=O)NC4(C#N)CC4)cc2n3-c2nnc(C(F)F)s2)CC1 [Example 123, N-(1-Cyanocyclopropyl)-9-(5-(difluoromethyl)-1,3,4-thiadiazol-2-yl)-4-(1-(isopropylsulfonyl)piperidin-4-yl)-9H-pyrimido[4,5-b]indole-7-sulfonamide]",< 0.1 µM,< 0.1 µM
"N#CC1(NS(=O)(=O)c2ccc3c4c(C5CCN(C(=O)[C@@H]6CCCN6)CC5)ncnc4n(-c4nnc(C(F)F)s4)c3c2)CC1 [Example 124, (S)—N-(1-Cyanocyclopropyl)-9-(5-(difluoromethyl)-1,3,4-thiadiazol-2-yl)-4-(1-prolylpiperidin-4-yl)-9H-pyrimido[4,5-b]indole-7-sulfonamide]",0.1 to 1 µM,< 0.1 µM
"N#CC1(NS(=O)(=O)c2ccc3c4c(C5CCN(C(=O)[C@H]6CCCN6)CC5)ncnc4n(-c4nnc(C(F)F)s4)c3c2)CC1 [Example 125, (R)-N-(1-cyanocyclopropyl)-9-(5-(difluoromethyl)-1,3,4-thiadiazol-2-yl)-4-(1-prolylpiperidin-4-yl)-9H-pyrimido[4,5-b]indole-7-sulfonamide]",0.1 to 1 µM,< 0.1 µM
"CC(C)(N)C(=O)N1CCC(c2ncnc3c2c2ccc(S(=O)(=O)NC4(C#N)CC4)cc2n3-c2nnc(C(F)F)s2)CC1 [Example 126, 4-(1-(2-Amino-2-methylpropanoyl)piperidin-4-yl)-N-(1-cyanocyclopropyl)-9-(5-(difluoromethyl)-1,3,4-thiadiazol-2-yl)-9H-pyrimido[4,5-b]indole-7-sulfonamide]",0.1 to 1 µM,< 0.1 µM
"C[C@@H](N)C(=O)N1CCC(c2ncnc3c2c2ccc(S(=O)(=O)NC4(C#N)CC4)cc2n3-c2nnc(C(F)F)s2)CC1 [Example 127, 4-(1-(D-Alanyl)piperidin-4-yl)-N-(1-cyanocyclopropyl)-9-(5-(difluoromethyl)-1,3,4-thiadiazol-2-yl)-9H-pyrimido[4,5-b]indole-7-sulfonamide]",0.1 to 1 µM,< 0.1 µM
